The values below come from patent US5843941A, “Ras farnesyl transferase inhibitors” (Genentech, Inc., priority 1994, dated 1998).

Test [1] deals with src-transformed rat-1 fibroblasts. As to the kind of experiment: Changes in morphology of src-transformed cells. The settings on record: FIG. 6C/6D. Type of test: cell-based. On the procedure:
Compound 27A (denoted as BG269A in the figure) and compound 27B (denoted as BG269B in the figure) were added at 250 μM to test whether these compounds would induce reversion to a more normal phenotype as had been previously shown with microinjection of anti-Ras antibodies (see Feramisco, J. R. et al Nature 314, 639 (1985)). The H-ras transformed cells, denoted as rat 2.2 cells, were generated by transfection of rat-1 fibroblasts as described (see Seeburg, P. H., Colby, W. W., Capon, D. J., Goeddel, D. V., and Levinson, A. D. Nature 312,71 (1984)). Cells that overgrew the monolayer were extracted and plated onto agar to obtain a cell line displaying a fully transformed phenotype. Untransformed rat-1 fibroblasts and src-transformed rat-1 fibroblasts were also treated. The src-transformed cells were generated by co-transfection of rat-1 fibroblasts with pSV3.Neo.src, a vector containing the gene for src as well as the gene that confers G418 resistance, both under control of SV40 early promoters. G418-resistant cell clones that diplayed a transformed phenotype were used to generate the cell line. On day 0, cells were plated in monolayer culture at 3×10^3 cells per well (24-well plates) in 1 ml DMEM supplemented with 10% FCS, 100 U/ml penicillin, 10 μg/ml streptomycin, 2% DMSO, and 0.5 mM DTT with and without 200 μM inhibitor. On day 3, the cells were refed with the same medium. […]

Test [2] has as its target T1, CAAX GG transferase (Rattus norvegicus, UniProt P53610+Q04631).
T1 construct: partially purified CAAX GG transferase; from tissue
Put plainly: Inhibition of CAAX GG transferase (geranylgeranyltransferase). It counts as biochemical. An excerpt:
FIG. 1 compares the inhibitory activity of compound 27B (denoted as BG269B in the figure) on protein prenyltransferases. […] Two other prenyltransferases, both of which transfer 20-carbon geranylgeranyl (GG) groups, have been identified in rat brain. One of thesse, CAAX GG transferase, attaches GG groups to proteins that terminate in CAAX sequences in which X is leucine.
The conditions used to assay the inhibition of CAAX farnesyltransferase are identical to those described above for the in vitro, assay described in Example 121. In FIG. 1B the assay mixture contained, in a final volume of 50 μl, 50 mM sodium Hepes (pH 7.2), 5 mM MgC12, 5 mM DTT, 0.3 mM Nonidet P-40, 0.2% octyl β-glucoside, 1% DMSO, 0.5 μM all trans [3H]geranylgeranyl pyrophosphate (33,000 dpm/pmol; ARC, Inc.), 5 μM recombinant p21^H-rasCVLL, 6.3 μg partially purified CAAX GG transferase (see Seabra, M. C., Reiss, Y., Casey, P. J., Brown, M. S., and Goldstein, J. L. Cell 268, 4055 (1993)) and varying concentrations of the indicated inhibitor. In FIG. 1C, the assay mixture contained in a final volume of 50 μl, 50 mM sodium Hepes (pH 7.2), 5 mM MgCl2, 5 mM DTT, 0.3 mM Nonidet P-40, 0.2% octyl β-D-glucoside, 1% DMSO, 0.5 μM all trans [3H]geranylgeranyl pyrophosphate (33,000 dpm/pmol; ARC, Inc.), 2 μM recombinant Rab1A, 2 ng each of purified Components A and B of Rab GG transferase (see Seabra, M. C., Goldstein, J. L., Sudhof, T. C., and Brown, M. S. J. Biol. Chem. 267, 14497 (1992)) and varying concentrations of the indicated inhibitor.
Each assay was carried out as described in Examples 121 and 122.

In test [3] the test system is Hela cells. As to the kind of experiment: Growth inhibition of human tumor line Hela. Type of test: cell-based. The settings on record: cervix, not ras transformed, read-out: % growth inhib. On the procedure:
(§1) To examine the effects of farnesyltransferase inhibition on cell growth, three cell lines (ras-transformed rat-1, src-transformed rat-1, and parental rat-1 cells) were seeded (see FIG. 7) at low density and allowed to grow for 10 days in the absence or presence of increasing concentrations of BZA-5B (compound 37). See Example 128 for description of cells. On day 0, cells were plated in monolayer culture at 2×10^3 cells per well (24-well plates) in 1 ml DMEM supplemented with 10% fetal calf serum, 100 U/ml penicillin, 100 μg/ml streptomycin, 0.5 mM DTT, 0.025% DMSO, and the indicated concentration of BZA-5B (compound 37). On days 3 and 7, cells were washed and refed with the same medium. At the time indicated in FIG. 7, cells were harvested by trypsinization and counted in a Coulter counter. Panels A, C, E show the growth rate of each cell line in the absence of inhibitor. Panels B, D, F show the inhibition of growth as a function of concentration of BZA-5B at each time point. […]
(§2) To examine the effects of farnesyltransferase inhibition on the growth of human tumor cell lines, several such lines were treated with 25 μM BZA-5B (compound 37B) using a procedure similar to that described in Example 129 above. Cells were refed with fresh media at days 3 and 6 containing the inhibitor, and were harvested and counted as described above. […]

In test [4] the test system is HT-1080 cells. As to the kind of experiment: Growth inhibition of human tumor line HT-1080. Type of test: cell-based. The note with it: HT-1080, fibrosarcoma, ras transformed, read-out: % growth inhib. On the procedure: as §1, §2
For test [5], the system named is MCF-231 cells. Put plainly: Growth inhibition of human tumor line MCF-231. It counts as cell-based. The note with it: MCF-231, breast (human), ras transformed, read-out: % growth inhib. The method, then: as §1, §2

T1 sequence (P53610 whole entry, one chain of several): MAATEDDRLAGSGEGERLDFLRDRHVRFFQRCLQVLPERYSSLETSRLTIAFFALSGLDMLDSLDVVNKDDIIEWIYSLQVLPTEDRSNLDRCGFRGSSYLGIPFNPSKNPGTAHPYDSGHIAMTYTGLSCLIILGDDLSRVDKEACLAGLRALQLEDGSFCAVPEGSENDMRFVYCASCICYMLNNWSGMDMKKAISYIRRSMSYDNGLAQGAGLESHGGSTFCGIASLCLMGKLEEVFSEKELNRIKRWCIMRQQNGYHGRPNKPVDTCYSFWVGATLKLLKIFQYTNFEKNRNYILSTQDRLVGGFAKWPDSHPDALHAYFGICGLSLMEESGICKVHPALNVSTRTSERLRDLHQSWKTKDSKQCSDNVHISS

As to `CSCC[C@H](NC(=O)CN1C(=O)C(N(C)C(=O)[C@@H](N)CS)N=C(c2ccccc2)c2ccccc21)C(=O)O` (single isomer, unassigned) [27B], the “effect on morphology of src-transformed cells” value in test [1] is on record as “not affected”. In addition, the IC50 in test [2] (FIG. 1B, p21H-rasCVLL substrate, read-out: IC0.5 CAAX GG transferase) is 35 nM. In test [2] (selectivity vs CAAX farnesyltransferase), the “fold higher concentration for CAAX GG transferase than for CAAX farnesyltransferase” value is listed as “more than 100 fold”.

On to `COC(=O)[C@H](CCSC)NC(=O)CN1C(=O)C(N(C)C(=O)[C@@H](N)CS)N=C(c2ccccc2)c2ccccc21` (single isomer, unassigned) [37B], for which the inhibition at 25 µM in test [3] came out at 0%; in test [4], 64%; in test [5] it was 58%.
